The subject of test [1] is pseudo type VSV-E1E2. Format: cell-based.
The subject of test [2] is Monocyte-derived DCs from healthy donors (N-DC). Description: MICA/B expression in stimulated DC by flow cytometry (N-DC). Type of test: cell-based, human. Particulars: N-DC stimulated 24 hours with cytokine at day 6.
Test [3] relates to Monocyte-derived DCs from HCV-infected patients (HCV-DC). Description: MICA/B expression in stimulated DC by flow cytometry (HCV-DC). Format: cell-based, human. The settings on record: HCV-DC stimulated 24 hours with cytokine at day 6.
Test [4] concerns NK cells. Description: NK cell activation by co-culture with stimulated HCV-DC. The settings on record: NK cells co-cultured with cytokine-stimulated HCV-DC. Format: cell-based, human. The procedure:
(§1) NK cells were isolated from PBM of a healthy donor, and labeled with a concentrated antibody cocktail for NK cell, then, labeled with magnetic colloid (StemCell Technologies (Vancouver, BC, Canada)). 90% or more of the cells were CD56+CD3-lymphocytes. The concentrated NK cells were cultured with RPMI 1640 medium supplemented with 10% FCS and 10 U/mL penicillin/streptomycin, in a 24-well culture dish (5.0×10^5/well). DCs from a healthy individual (N-DC) or a HCV-infected individual (HCV-DC) were stimulated with IFNa (1000 U/mL) or IL-15 (50 ng/mL) for 24 hours, added to a well at a concentration of 1.0×10^5/mL, and co-cultured together with NK cells for 24 hours.
The cytolysis assay was carried out as described below. Target cells (K562) labeled with ^51Cr were incubated for 4 hours at various effecter/target ratios, in NK/DC co-culturing (with or without trans well system) or NK cell single culturing. After incubation, the supernatant was recovered, and ? counting was conducted. […] The cytolysis activity was calculated according to the following formula: Lysis %=(experimental value of release−natural release)×100/(maximum release−natural release)
Intracellular IFN? expression of an NK cell was assayed as described below. […] The stained cells were analyzed by flow cytometry. […]

Test [5] deals with NK cells. In words: NK cell activation by co-culture with stimulated N-DC (K562 cytolytic assay, intracellular IFN? expression). Type of test: cell-based, human. The procedure: as §1
(§2) The cytolysis assay was carried out as described below. Target cells (K562) labeled with ^51Cr were incubated for 4 hours at various effecter/target ratios, in NK/DC co-culturing (with or without trans well system) or NK cell single culturing. After incubation, the supernatant was recovered, and ? counting was conducted. Maximum release or natural release was defined as counting from a sample incubated with 5% Triton-X or a sample incubated with only the medium, respectively. The cytolysis activity was calculated according to the following formula: Lysis %=(experimental value of release−natural release)×100/(maximum release−natural release)
(§3) Intracellular IFN? expression of an NK cell was assayed as described below. NK cells cultured for 24 hours together with DC as described above were incubated together with 10 ng/ml PMA and 1 μmol/L ionomycin (Sigma Aldrich). Next, after incubation at 37° C. for 4 hours in the presence of 1 μl/mL GolgiPlug (registered trademark)(BD-Phanmngen), NK cells were stained at 4° C. for 30 minutes with a PE-labeled CD56 monoclonal antibody. The cells were treated with Cytofix/Cytoperm (registered trademark) buffering solution (BD-Pharmingen) at room temperature for 15 minutes, then, stained with a FITC-labeled-anti-IFN? monoclonal antibody (mouse IgG1). The stained cells were analyzed by flow cytometry. […]

The subject of test [6] is N-DC. In words: Cytokine production of stimulated N-DC, ELISA of culture supernatant. Type of test: cell-based, human. Particulars: N-DC cultured 24 hours with 50 ng/ml IL-15. The procedure:
(§4) N-DC and HCV-DC were stimulated with IFNa (1000 U/mL) for 24 hours(n=5 for each group). IL-15, IL-12p70, TNFa and IL-1β in each culture supernatant were measured by solid phase sandwich ELISA using a couple of specific monoclonal antibodies and a recombinant cytokine standard substance (IFNa/β, IL-12p70, TNFa and IL-1β, Endogen, Wobum, Mass.; IL-15, BD-Pharmingen). The limit thresholds of detection of these ELISA systems are as described below: IL-15, 3.7 pg/mL; IFNa/β, 17.5 pg/mL; IL-12p70, TNFa and IL-1β, 8.8 pg/mL.
(§5) N-DC and HCV-DC were cultured for 24 hours together with 50 ng/ml IL-15 in the presence or absence of an anti-IFNa/βR neutralization antibody (30 μg/mL)(n=5 for each group). IFNa and IFNβ in each culture supernatant were measured by ELISA.

Test [7] relates to NK cells. In words: NK cells cultured with IL-15 alone (K562 cytolytic activity and IFN? production). Type of test: cell-based, human. The settings on record: newly isolated NK cells cultured 24 hours with 50 ng/mL IL-15, no DC. The procedure:
as §2, §3

In test [8] the test system is HCV-DC. Description: Cytokine production of stimulated HCV-DC, ELISA of culture supernatant. Type of test: cell-based, human. The settings on record: HCV-DC cultured 24 hours with 50 ng/ml IL-15. The procedure:
as §4, §5

The subject of test [9] is MDC. Type of test: cell-based, human.
The test system of test [10] is VSV? G-G. Format: cell-based.
In test [11] the test system is pseudo type VSV-E1E2. Type of test: cell-based. The source holds these as a separate data set.
The test system of test [12] is HCV. Type of test: cell-based.
Where [13] appears, read: NK cells co-cultured 24 hours with cytokine-stimulated N-DC.

Regarding `O=C[C@H](O)[C@@H](O)[C@@H](O)[C@H](O)CO` [galactose], the “percentage of GFP+ cell having VSV-E1E2” value in test [1] is reported as “did not exert an influence”.

For the molecule IL-18: cytokine (R&D Systems), the MICA/B expression result in test [2] and in test [3] was “did not induce MICA/B expression” each time.

Turning to `O=C(O)CN(CCN(CC(=O)O)CC(=O)O)CC(=O)O` [EDTA], the “percentage of GFP+ cell having VSV-E1E2” value in [1] is recorded as “did not decrease”.

“IL-15: cytokine (R&D Systems); claimed active ingredient, T cell growth factor stimulating dendritic cells”: the “activation of NK cells” value in test [4] is “activated NK cells”. The “IFN? production of NK cells” value in test [5] (setting [13]) is given as “increase”. Also, the “cytolytic activity for K562 cells” value in test [5] (setting [13]) is “increase”. Besides, the K562 cytolytic activity entry in test [5] (trans well: NK cells and IL-15 (50 ng/mL)-stimulated N-DC separated by 0.4 μm membrane, 24 hours) is recorded as “did not show increase in cylolytic ability”. Besides, the “production of IFNa and IFNβ” value in test [6] and in [8] was “produced” in each case. Moreover, the “activation of NK cells (K562 cytolytic activity and IFN? production)” value in [7] was “could not activate NK cells”. Also, the MICA/B expression result in test [2] and in test [3] was “could apparently induce MICA/B” each time.

On to IL-12: cytokine (R&D Systems), for which the MICA/B expression entry in [2] and in test [3] was “did not induce MICA/B expression” in each case.

On to CpG ODN 2006, for which the “expression of CD83 and CD86” value in test [9] was “up-regulated”. For the same molecule, the “percentage of VSV-E1E2-containing GFP+ cells” value in test [1] is “decreases significantly”. For the same molecule, in test [10], the “sensitivity against VSV? G-G (percentage of GFP+ cells)” value was “not influenced”.

On to mannan, for which the “infection of VSV-E1E2 in HepG2 cells” value in test [11] is listed as “did not inhibit”. Moreover, the “disturbing effect on infection of MDC with true HCV” value in [12] was “confirmed”. In addition, the “percentage of GFP+ cell having VSV-E1E2” value in test [1] is “decreased in dose-dependent manner”.

polyI:C: in test [1], the “percentage of VSV-E1E2-containing GFP+ cells” value was “decreased”. Besides, in test [10], the “sensitivity against VSV? G-G (percentage of GFP+ cells)” value is recorded as “decreased”.

TNFa: the MICA/B expression result in [2] and in test [3] was “did not induce MICA/B expression” in each case. Also, the “percentage of VSV-E1E2-containing GFP+ cells” value in [1] is reported as “decreased”. Further, the “sensitivity against VSV? G-G (percentage of GFP+ cells)” value in test [10] is reported as “decreased”.

In the case of “GM-CSF: recombinant human GM-CSF (PeproTech)”, the “proportion of GFP+ cells (median)” value in [1] is 1.5%.

B1: IL-4: recombinant human IL-4 (PeproTech) (protein, UniProt P05112 25-153, looked up)
Interleukin-4: HKCDITLQEIIKTLNSLTEQKTLCTELTVTDIFAASKNTTEKETFCRAATVLRQFYSHHEKDTRCLGATAQQFHRHKQLIRFLKRLDRNLWGLAGLNSCPVKEANQSTLENFLERLKTIMREKYSKCSS
Turning to B1, the “percentage of VSV-E1E2-containing GFP+ cells” value in test [1] is recorded as “decreases significantly”. The “sensitivity against VSV? G-G (percentage of GFP+ cells)” value in test [10] was “not influenced”.

Values taken from patent publication US20070110714A1 (priority 2003, published 2007).
